Assay results reported in PubChem BioAssay (NCI).
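Following 48 hours of exposure in 96-well plates, responses at five concentrations were used to interpolate endpoints linearly. TGI: concentration producing complete growth inhibition.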

Key:
Test in all cases: NCI-60 cell line screen, 48 h
[1] = test system: SF-295 CNS
[2] = test system: SNB-75 CNS
[3] = test system: ACHN renal
[4] = test system: EKVX NSCLC
[5] = test system: UO-31 renal
[6] = test system: 786-0 renal
[7] = test system: HCT-15 colon
[8] = test system: NCI-H226 lung
[9] = test system: OVCAR-5 ovarian
[10] = test system: MOLT-4 leukemia
[11] = test system: KM12 colon
[12] = test system: HT29 colon
[13] = test system: OVCAR-4 ovarian
[14] = test system: HOP-62 NSCLC
[15] = test system: K-562 leukemia
[16] = test system: M14 melanoma
[17] = test system: SK-MEL-2 melanoma
[18] = test system: MDA-MB-435
[19] = test system: HL-60(TB) leukemia
[20] = test system: RPMI-8226 leukemia
[21] = test system: NCI-H522 lung
[22] = test system: MCF7 breast
[23] = test system: COLO 205 colon
[24] = test system: CAKI-1 renal
[25] = test system: A549 NSCLC
[26] = test system: U251 CNS
[27] = test system: T-47D breast
[28] = test system: LOX IMVI melanoma
[29] = test system: OVCAR-8 ovarian
[30] = test system: TK-10 renal
[31] = test system: NCI/ADR-RES ovarian
[32] = test system: UACC-62 melanoma
[33] = test system: HCT-116 colon
[34] = test system: NCI-H23 lung
[35] = test system: HCC-2998 colon
[36] = test system: SK-MEL-28 melanoma
[37] = test system: OVCAR-3 ovarian
[38] = test system: UACC-257 melanoma
[39] = test system: BT-549 breast
[40] = test system: CCRF-CEM leukemia
[41] = test system: A498 renal
[42] = test system: PC-3 prostate
[43] = test system: MALME-3M melanoma
[44] = test system: SN12C renal
[45] = test system: SK-OV-3 ovarian
[46] = test system: SW-620 colon
[47] = test system: SR leukemia
[48] = test system: MDA-N
[49] = test system: SF-539 CNS
[50] = test system: MDA-MB-231 breast
[51] = test system: SK-MEL-5 melanoma
[52] = test system: IGROV1 ovarian

## O=C(O)c1ccccc1SCc1cccc2c(=O)c3ccc(Cl)cc3oc12
[1]
  TGI: > 50 µM
[2]
  TGI: > 50 µM
[3]
  TGI: > 50 µM
[4]
  TGI: > 50 µM
[5]
  TGI: > 50 µM
[6]
  TGI: > 50 µM
[7]
  TGI: > 50 µM
[8]
  TGI: > 50 µM
[9]
  TGI: > 50 µM
[10]
  TGI: > 50 µM
[11]
  TGI: > 50 µM
[12]
  TGI: > 50 µM
[13]
  TGI: > 50 µM
[14]
  TGI: 47.3 µM
[15]
  TGI: > 50 µM
[16]
  TGI: > 50 µM
[17]
  TGI: > 50 µM
[18]
  TGI: > 50 µM
[19]
  TGI: 27.7 µM
[20]
  TGI: > 50 µM
[21]
  TGI: > 50 µM
[22]
  TGI: > 50 µM
[23]
  TGI: > 50 µM
[24]
  TGI: > 50 µM
[25]
  TGI: > 50 µM
[26]
  TGI: > 50 µM
[27]
  TGI: > 50 µM
[28]
  TGI: > 50 µM
[29]
  TGI: > 50 µM
[30]
  TGI: > 50 µM
[31]
  TGI: > 50 µM
[32]
  TGI: > 50 µM
[33]
  TGI: > 50 µM
[34]
  TGI: > 50 µM
[35]
  TGI: > 50 µM
[36]
  TGI: > 50 µM
[37]
  TGI: > 50 µM
[38]
  TGI: > 50 µM
[39]
  TGI: > 50 µM
[40]
  TGI: > 50 µM
[41]
  TGI: > 50 µM
[42]
  TGI: > 50 µM
[43]
  TGI: 44.9 µM
[44]
  TGI: > 50 µM
[45]
  TGI: > 50 µM
[46]
  TGI: > 50 µM
[47]
  TGI: > 50 µM
[48]
  TGI: > 50 µM
[49]
  TGI: > 50 µM
[50]
  TGI: > 50 µM
[51]
  TGI: > 50 µM
[52]
  TGI: > 50 µM
